pIC50: −log10 of the molar value. Read-outs that look alike come from different tables or passages of the source.
Experiments:
[1] = system: PyMT breast tumours; test: Spontaneous PyMT breast tumour progression in treated mice; format: in vivo, FVB PyMT+ female mice
Protocol: Alternatively, 6 week old PyMT+ female mice (with spontaneous breast tumours), were treated by subcutaneous injection with ELN476063 (3 mg/kg body weight), or saline every third day for three weeks (n=10). Tumours were excised, weighed and analyzed from 6 weeks at 9 weeks of age.
PI3-kinase γ inhibitor studies: C57BL/6 mice were subcutaneously implanted on d1 with 5×10^5 LLC or by intradermal injection with 5×10^5 B16 melanoma cells. Mice were treated by i.p. injection with 2.5 mg/kg of PI3-kinase γ inhibitor (TG100-115) or with a chemically similar inert control (n=10) twice daily for fourteen days for a total daily dose of 5 mg/kg. In additional studies, C57BL/6 mice were subcutaneously implanted on d1 with 5×10^5 LLC and were treated by i.p. injection with 2.5 mg/kg, 0.25 mg/kg, or 0.025 mg/kg of PI3-kinase γ inhibitor (TG100-115), with 2.5 mg/kg of AS605240 or with a chemically similar inert control (n=10) twice daily for twenty-one days for a total daily dose of 5 mg/kg. Tumour volumes, weights and blood vessel densities, as well as myeloid cell densities were measured. Alternatively, 6 week old PyMT+ female mice (with spontaneous breast tumours), were treated by i.p. injection with 2.5 mg/kg PI3-kinase γ inhibitor (TG100-115) or inert control twice daily for three weeks (n=10). Tumours were excised, weighed and analyzed after 3 weeks. Alternatively, 6 week old FVB PyMT+ female mice were implanted with an Alzet osmotic pump with a 0.25 μl/h release rate containing 4.6 mg in 200 μl of TG100-115 or chemically similar, inert control (n=10). Mice were sacrificed at 9 weeks of age and tumours were analyzed.
Inguinal mammary glands were fixed in Carnoy's fixative, dehydrated through a graded series of ethanol solutions and defatted in xylene. Following rehydration, the mammary epithelium was stained with carmine stain (Sigma Chemical, St Louis, Mo.) for 30 min. After removing excess stain by washing in water, samples were dehydrated and stored in methyl salicylate (Sigma Chemical, St Louis, Mo.).^31

[2] = Pharmacokinetic analysis of TG100-115 in serum; format: in vivo, Balb/c mice; settings: mouse
Protocol: (§1) Pharmacokinetic analysis of a 5 mg/kg bolus dose TG100-115 in Balb-c mice was accomplish by evaluating TG100-115 levels in serum at 5, 15, 30, 60 minute intervals as was previously performed for rats^25. In vivo activity assay of a 5 mg/kg bolus dose TG100-115 in Balb-c mice was accomplish by evaluating pAkt/Akt levels in peripheral blood cells in response to SDF-1α stimulation at 0.25, 0.5, 1, 2, 4, 6 and 12 hour intervals

[3] = system: PI3kinase; test: In vivo PI3kinase activity assay (pAkt/Akt in peripheral blood mononuclear cells after i.v. dosing); parameters: species or system mice
Protocol: as §1
CD11b+ cells from C57BL/6 mice or PI3-kinase γ−/− mice were freshly isolated under serum free-conditions and were incubated for 30 min in serum-free media in the presence or absence of 1 μM TG100-115. CD11b+ cells were then stimulated with 200 ng/ml IL-1β or SDF-1α (R&D Systems) for 1-3 minutes and cells were solubilized with RIPA buffer. Alternatively, mice were injected intravenously with […] TG100-115 or a chemically similar inert control. Mononuclear peripheral blood leukocytes were isolated from 2 mice each at 0.5, 1, 2, 4, 6 and 12 hours after treatment. Cells were treated for 3 minutes with 200 ng/ml SDF and then solubilized with RIPA buffer. Lysates were electrophoresed and Western blotted. Akt phosphorylation was evaluated by immunoblotting with anti-phosphorylated Thr308-Akt specific antibody (C31 E5E, Cell Signalling). Blots were stripped and reprobed with anti-Akt (#9272, Cell Signaling). Films were scanned and quantified by densitometry.

[4] = system: CD11b+ myeloid cell adhesion to VCAM-1; test: Chemoattractant-stimulated CD11b+ myeloid cell adhesion to VCAM-1 / endothelial cells (Example 9 adhesion assay); format: cell-based, mouse; settings: Mus musculus, Endothelial cell, read-out: IC50, CD11b+ cell adhesion to VCAM-1
Protocol: 1×10^5 calcein-AM labelled human CD11b+ cells isolated from buffy coats from the San Diego Blood Bank or murine CD11b+ cells isolated from naïve (non-tumour bearing) or tumour-bearing mice were incubated on HUVEC monolayers or on plastic plates coated with 5 μg/ml recombinant soluble VCAM-1 or ICAM-1 (R&D Systems) for 30 minutes at 37° C. with humidity in the presence of LLC Tumour Conditioned Medium (TCM) or DMEM containing 200 ng/ml SDF1α, IL1β, IL6, TNFα or VEGF-A (R&D Systems). (SDF-1α and IL-1β were initially titrated to determine the minimum dose required to achieve near maximal stimulation of adhesion). TCM was prepared by incubating LLC cells in serum-free media for 18 h and filtering through 0.22 μm filters. After washing three times with warmed medium, adherent cells were quantified using a plate fluorimeter (GeniosPro, TECAN).
In some adhesion assays, cells were also incubated in 25 μg/ml function-blocking anti-integrin α4β1 (rat anti-murine, PS2 or mouse anti-human, HP2/1, gifts from Biogen-Idec), rat-anti-αM (anti-CD11b, M1/70) and isotype control antibodies (rat IgG2κ or mouse IgG1) or with 0.1 nM-10 μM doses of the small molecule inhibitor of integrin α4, ELN476063 (IC50=10 nM), a gift from Elan^14.
Additionally, labelled cells were incubated with HUVEC and rsVCAM coated plates in the presence of […] or SDF-1α and 1-10 μM inhibitors: pan-PI3 kinase inhibitors ([…], wortmannin), PI3-kinase α inhibitors (PI3K75, PIK2alpha, PI103), PI3-kinase β inhibitor (TGX221), PI3-kinase γ inhibitors (TG100-115, AS605240, AS604850), inert control, PLC inhibitor (U73122), geranylgeranyltransferase (Rap1-selective) inhibitors (GGTI-2147 and GGTI-298) or farnesyltransferase (Ras-selective) inhibitor (FTI-277), Akt inhibitors (Inhibitor X and peptide 18), mTOR inhibitor (rapamycin), ROCK inhibitor (Y27632), MEK inhibitor (PD98059), p38 inhibitor (SB202190), tyrosine kinase inhibitor (genestein) and PKA inhibitors (H89, KT5720). LY294002, wortmannin, genestein, U73122, GGTI-2147, GGTI-298, FTI-277, Y27632, PD98059, SB202190, H89 and KT5720 were from Calbiochem. PIK2alpha, PI103, AS605240, AS604850 and TGX221 were from Echelon. TG100-115 was prepared as described^25-26. To titrate the effect of various signalling protein inhibitors on myeloid cell adhesion stimulated by IL-1β or SDF-1α, cells were incubated in 1 nm to 100 μM PI3-kinase inhibitors TG00020 (a pan-PI3-kinase inhibitor), PI3-kinase α inhibitor (PI3Kalpha2) PI3-kinase β inhibitor (TGX221), PI3-kinase γ inhibitors (TG100-115, AS605240), an inert chemically matched control, farnesyltrasnferase inhibitors and geranylgeranyltransferase inhibitors. IC50s for GGTI and FTI were 1 μM. […] Adherent GFP+ cells were automatically quantified using MetaMorph software (Molecular Devices Software).

half-life ([2]; Balb/c, intravenous, 5 mg/kg, read-out: t1/2 in vivo (converted)): 13.2 min
concentration at 1 h ([2]; iv, single i.v. dose of 5 mg/kg, Balb/c mice): 7.1 ng/mL
half-life ([2]; iv, single i.v. dose of 5 mg/kg, Balb/c mice, read-out: half-life in mice in vivo (converted)): 13.2 min
pIC50 ([4]; IL-1β stimulated): 6.55
pIC50 ([4]; SDF-1α stimulated): 6.80
Structure (SMILES): Nc1nc(N)c2nc(-c3cccc(O)c3)c(-c3cccc(O)c3)nc2n1 [TG100-115, 3,3′-(2,4-diaminopteridine-6,7-diyl)diphenol]
carcinoma area in mammary gland whole mounts [1]: 6+/−1.3%
hyperplasia area in mammary gland whole mounts [1]: 27+/−5%
normal tissue area in mammary gland whole mounts [1]: 67+/−3%
time after dosing for which PI3kinase activity is inhibited ([3]; 5 mg/kg i.v., PBMC stimulated 3 min with SDF-1α): up to 12 hours
myeloid cell PI3kinase catalytic activity in vivo ([3]; mouse, in vivo): rapidly and sustainably inhibits myeloid cell PI3kinase catalytic activity in vivo

— patent publication US20100278837A1, “Compositions And Methods For Reducing Cancer And Inflammation” (The Regents of the University of California, priority 2009, published 2010)
